Experimental data taken from PMC8091061, “Ceramide-1-phosphate transfer protein (CPTP) regulation by phosphoinositides” (The Journal of Biological Chemistry, 2021).

How the values were obtained:
human CPTP (wtCPTP) = assay: FRET from CPTP Trp/Tyr to dansyl-PE in POPC vesicles; assay type: binding; conditions: pH 6.6, 150 mM NaCl, EDTA, 25 °C
Source text: FRET from CPTP Trp/Tyr to dansyl-PE in POPC vesicles on human CPTP (wtCPTP)

human GLTP = biological target: T1, human GLTP (Homo sapiens, UniProt Q9NZD2); assay: FRET intervesicular lipid transfer; assay type: biochemical; conditions: labelled compound; POPC donor to POPC acceptor vesicles, pH 6.6, 150 mM NaCl, EDTA, 25 °C; transfer cargo, not chemically converted
T1 sequence (Q9NZD2 1-209): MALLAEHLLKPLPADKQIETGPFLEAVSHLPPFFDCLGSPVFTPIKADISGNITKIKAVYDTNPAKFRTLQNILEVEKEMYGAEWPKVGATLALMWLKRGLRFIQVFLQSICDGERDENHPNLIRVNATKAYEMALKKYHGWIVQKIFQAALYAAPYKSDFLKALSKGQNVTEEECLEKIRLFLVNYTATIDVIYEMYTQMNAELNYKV

[1] = apparent Kd for POPC vesicles with 10 mol% lipid and 2 mol% dansyl-PE (vesicle PC concentration, not free lipid)

Row | Compound | Kd (human CPTP (wtCPTP); [1]) [µM] | other results
1 | CCCCCCCC/C=C\CCCCCCCC(=O)OC[C@H](COP(=O)(O)O[C@@H]1[C@H](O)[C@H](O)[C@@H](O)[C@H](O)[C@H]1O)OC(=O)CCCCCCC/C=C\CCCCCCCC [PI, 1,2-dioleoyl-sn-glycero-3-phospho-(1'-myo-inositol)] | 0.75 ± 0.09 | 
2 | CCCCCCCC/C=C\CCCCCCCC(=O)O[C@H](COC(=O)CCCCCCCCCCCCCCC)COP(=O)([O-])OCC[N+](C)(C)C [POPC, 1-Palmitoyl-2-oleyl-sn-glycero-3-phosphocholine] |  | Kd (human CPTP (wtCPTP); pure POPC vesicles with 2 mol% dansyl-PE (apparent, vesicle PC concentration)): 1.76 ± 0.2 µM
3 | CCCCCCCCCCCCC/C=C/[C@@H](O)[C@H](CO[C@@H]1O[C@H](CO)[C@H](O)[C@H](O)[C@H]1O)NC(=O)CCCCCCCCC/C=C/c1c2ccccc2cc2ccccc12 [AV-GalCer] |  | FRET intervesicular lipid transfer (human GLTP): GalCer transfer rates by GLTP were unaffected by PI and PI-3P

Continued, in another order:

Row | Kd (human CPTP (wtCPTP); [1]) [µM] | Compound | other results
4 | 0.26 ± 0.04 | CCCCCCCC/C=C\CCCCCCCC(=O)OC[C@H](COP(=O)(O)O[C@@H]1[C@H](O)[C@H](O)[C@@H](OP(=O)(O)O)[C@H](OP(=O)(O)O)[C@H]1O)OC(=O)CCCCCCC/C=C\CCCCCCCC [PI-(4,5)P2, 1,2-dioleoyl-sn-glycero-3-phospho-(1'-myo-inositol-4',5'-bisphosphate)] | 
5 | 0.26 ± 0.03 | CCCCCCCC/C=C\CCCCCCCC(=O)OC[C@H](COP(=O)(O)O[C@H]1[C@H](O)[C@@H](O)[C@H](OP(=O)(O)O)[C@@H](O)[C@H]1O)OC(=O)CCCCCCC/C=C\CCCCCCCC [PI-4P, 1,2-dioleoyl-sn-glycero-3-phospho-(1'-myo-inositol-4'-phosphate)] | 
6 | 0.29 ± 0.04 | PI-3P | 
